As usually defined, the bioavailability is dose-corrected exposure relative to a reference, in per cent. By Cmax is commonly meant the maximum level reached in the sampled fluid or tissue. Usually IC50 stands for the concentration that inhibits the measured activity by half. A lower IC50 goes with greater potency in that assay.

A short description of data set [1]: Standard Rat Pharmacokinetics (PK). To be noted: for bioavailability: plasma; for Cmax: rat plasma. The format is in vivo. Here is the method:
The conversion of prodrug to active form was evaluated using a standard rat PK protocol. The following procedure may be followed.
Rats were dosed intravenously (IV) at the level of 1.5-3 mg/kg and by oral gavage (PO) at the level of 10-30 mg/kg with prodrug candidate. For each study, four rats were used for IV dosing and four rats were used for PO dosing. Prodrug was typically formulated for IV dosing as a solution in 10% W/V solutol in 5% dextrose in sterile water vehicle (D5W). Prodrug was typically formulated for oral dosing as a uniform suspension in 0.5% methylcellulose vehicle. Blood samples (0.5 mL) were collected into heparinized tubes post dose via orbital sinus puncture. For IV dosing, blood samples were collected at 5, 15 and 30 mins, 1, 2, 4, 6, 8, and 24 hrs after the dosing. For PO dosing, blood samples were collected at 30 mins, 1, 2, 4, 6, 8 and 24 hrs. Blood samples were centrifuged for cell removal, and precisely 200 μL of plasma supernatant was then transferred to a clean vial, placed on dry ice, and subsequently stored in a −70° C. freezer prior to analysis. Results were calculated by WinNonlin Pro version 3.1. Plasma levels were determined and the oral and intravenous area under the concentration vs. time curve (AUC) were compared to determine the % bioavailability (% F) by the following formula: Dose(IV)*AUC(oral)/Dose (oral)*AUC(IV).

For the next data set, the system named is HCT-116 colon carcinoma. The data set can be described thus: Inhibition of cell proliferation (14C-thymidine incorporation), HCT116. The format is cell-based, human. Here is the method:
(§1) The ability of a test compound to inhibit the proliferation of cell growth was determined by measuring incorporation of ^14C-labelled thymidine into newly synthesized DNA within the cells. This method was used on cell lines derived from carcinomas originating from several tissues such as HeLa cervical adenocarcinoma (American Type Culture Collection (ATCC), Virginia, Cat. #CCL-2), A375 malignant melanoma (ATCC CRL-1619), and HCT-116 colon carcinoma (CCL-247). In this way the effect of a compound on cell growth of cells with many different phenotypes can be determined. Cells were trypsinized and counted and 3000-8000 cells were added to each well of a 96-well CytoStar tissue culture treated scintillating microplate (Amersham #RPNQ0160) in complete medium in a volume of 100 μl. Cells were incubated for 24 hours in complete medium at 37° C. in an atmosphere containing 5% CO2.
(§2) Next, 1 μl of test compound in 100% DMSO was added to the wells of the plate. DMSO only was added to control wells. Cells were incubated for 24 more hours in complete medium at 37° C. in an atmosphere containing 5% CO2. Methyl ^14C-thymidine 56 mCi/mmol (NEN #NEC568 or Amersham #CFA532) was diluted in complete medium and 0.2 uCi/well was added to each well of the CytoStar plate in a volume of 20 ul. The plate was incubated for 24 hours at 37° C. plus 5% CO2 in drug plus ^14C-thymidine. The contents of the plate were discarded into a ^14C radioactive waste container by inverting the plate and the plate was washed twice with 200 μl PBS.
(§3) 200 μl of PBS was added to each well. The top of the plate was sealed with a transparent plate sealer and a white plate backing sealer (Packard #6005199) was applied to the bottom of the plate. The degree of methyl ^14C-thymidine incorporation was quantified on a Packard Top Count.
A general note: Uptake of a labelled nucleoside into DNA is a usual measure of proliferation.

A further data set concerns A375 malignant melanoma. The data set can be described thus: Inhibition of cell proliferation (14C-thymidine incorporation), A375. The format is cell-based, human. Here is the method:
as §1, §2, §3

The target in the next data set is CDK2:Cyclin-E (Homo sapiens, UniProt P24941). The data set can be described thus: CDK2 Screening Assay (33P-ATP FlashPlate). The format is biochemical. To be noted: 10 μM ATP; >10 or >100 = less than 50% inhibition at highest concentration tested. How it is done: A kinase reaction mixture was prepared containing 50 mM Tris-HCl pH=8, 10 mM MgCl2, 0.1 mM Na3PO4, 1 mM DTT, 10 μM ATP, 0.025 μM biotinylated histone-H1 peptide substrate and 0.2 μCuries per well ^33P-γ-ATP (2000-3000 Ci/mmol). 70 μL of the kinase reaction mixture was dispensed into the well of a streptavidin coated FlashPlate™ (Cat. # SMP103, NEN, Boston, Mass.). Then 1 μL of test compound stock in 100% DMSO was added to the wells resulting in a final concentration of 1% DMSO in the reaction with a 100 μl final reaction volume. Next, CDK2:Cyclin-E protein was diluted in 50 mM Tris-HCl pH=8.0, 0.1% BSA at a concentration of 1 ng per μL and 30 μL (30 ng enzyme per test well) was added to each well to initiate the reaction. The reaction was incubated for one hour at 30° C. At the end of the 1 h incubation, the reaction was terminated by aspirating the mixture from the plate and washing the wells twice with PBS containing 100 mM EDTA. The histone-H1 biotinylated peptide substrate became immobilized on the Flashplate™ and the incorporation of ^33P-γ-ATP was measured by reading the plate on a scintillation counter. Inhibition of the enzymatic activity of CDK2 was measured by observing a reduced amount of ^33P-γ-ATP incorporated into the immobilized peptide. […]

[2] abbreviates: rat, IV/PO 2/10 mg/kg, Dose(IV)*AUC(oral)/Dose(oral)*AUC(IV).
Where [3] appears, read: PO 10 mg/kg of prodrug, read-out: Prodrug Cmax (μM) PO.
The mark [4] stands for this setting: rat, IV/PO 3/30 mg/kg, Dose(IV)*AUC(oral)/Dose(oral)*AUC(IV).
Setting [5] is: IV 3 mg/kg of prodrug, read-out: Prodrug Cmax (μM) IV.
The mark [6] stands for this setting: IV 2 mg/kg of prodrug, read-out: Prodrug Cmax (μM) IV.
The mark [7] stands for this setting: PO 30 mg/kg of prodrug, read-out: Prodrug Cmax (μM) PO.

Counter-ions that a name gives are not always drawn. Like-named read-outs stand apart in the source and are kept apart here.

Regarding `Nc1nc(Nc2ccc(S(=O)(=O)NC(=O)COCCOCCOCC(=O)O)cc2)nn1C(=O)c1c(F)cccc1F` [Compound 12, {2-[2-(2-{4-[5-amino-1-(2,6-difluoro-benzoyl)-1H-[1,2,4]triazol-3-ylamino]-benzenesulfonylamino}-2-oxo-ethoxy)-ethoxy]-ethoxy}-acetic acid.2TFA salt], the bioavailability in data set [1] (setting [2]) is 0%. For the same compound, the Cmax in data set [1] (setting [3]) came out at 0.04 µM. Moreover, the IC50 in the data set on HCT-116 colon carcinoma (Homo sapiens, HCT-116) was more than 10 µM; in the data set on A375 malignant melanoma (Homo sapiens, A-375) it was more than 10 µM; against CDK2:Cyclin-E, 0.08 µM.

As to `CN(C)CC(=O)NS(=O)(=O)c1ccc(Nc2nc(N)n(C(=O)c3c(F)cccc3F)n2)cc1` [Compound 6, 4-[5-amino-1-(2,6-difluoro-benzoyl)-1H-[1,2,4]triazol-3-ylamino]-N-(2-dimethylamino-acetyl)-benzenesulfonamide], the bioavailability in data set [1] (setting [4]) was determined as 0%. In data set [1] (setting [5]), the Cmax stood at 25.2 µM. Further, the 50% inhibitory concentration (IC50) with HCT-116 colon carcinoma (Homo sapiens, HCT-116) is more than 10 µM; in the data set on A375 malignant melanoma (Homo sapiens, A-375), more than 100 µM; against CDK2:Cyclin-E, 0.32 µM.

The compound `C[C@@H](N)C(=O)NS(=O)(=O)c1ccc(Nc2nc(N)n(C(=O)c3c(F)cccc3F)n2)cc1` [Compound 14, 4-[5-amino-1-(2,6-difluoro-benzoyl)-1H-[1,2,4]triazol-3-ylamino]-N—((R)-2-amino-propionyl)-benzenesulfonamide] had a bioavailability in data set [1] (setting [2]) of 1%. Further, the figures for the maximum concentration (Cmax) in data set [1] (setting [6]) and in data set [1] (setting [3]) were 11 µM and 0.08 µM, respectively. The IC50 with HCT-116 colon carcinoma (Homo sapiens, HCT-116) amounted to 38.5 µM; with A375 malignant melanoma (Homo sapiens, A-375) it was 71.1 µM; against CDK2:Cyclin-E, 0.06 µM.

Turning to “4-[5-amino-1-(2,6-difluoro-benzoyl)-1H-[1,2,4]triazol-3-ylamino]-N-propionyl-benzenesulfonamide [Compound 20]”, the maximum concentration (Cmax) in data set [1] (setting [5]) came out at 33.5 µM; in data set [1] (setting [7]) it was 0.02 µM. Moreover, the “% F” value in data set [1] (setting [4]) came out at 0.34%. The half-inhibitory concentration (IC50) was more than 10 µM in the data set on HCT-116 colon carcinoma, more than 10 µM in the data set with A375 malignant melanoma and 0.28 µM against CDK2:Cyclin-E.

`Nc1nc(Nc2ccc(S(=O)(=O)NC(=O)[C@@H](N)CO)cc2)nn1C(=O)c1c(F)cccc1F` [Compound 13, 4-[5-amino-1-(2,6-difluoro-benzoyl)-1H-[1,2,4]triazol-3-ylamino]-N—((S)-2-amino-3-hydroxy-propionyl)-benzenesulfonamide] returned a bioavailability in data set [1] (setting [2]) of 0%. Also, in data set [1] (setting [6]), the Cmax was determined as 8.15 µM. Also, the IC50 was 71.2 µM with HCT-116 colon carcinoma (Homo sapiens, HCT-116); more than 10 µM in the data set with A375 malignant melanoma (Homo sapiens, A-375); 0.14 µM against CDK2:Cyclin-E.

On to `CN1CCN(CCC(=O)NS(=O)(=O)c2ccc(Nc3nc(N)n(C(=O)c4c(F)cccc4F)n3)cc2)CC1` [Compound 5, 4-[5-amino-1-(2,6-difluoro-benzoyl)-1H-[1,2,4]triazol-3-ylamino]-N-[3-(4-methyl-piperazin-1-yl)-propionyl]-benzenesulfonamide], for which the bioavailability in data set [1] (rat, IV/PO 1.7/17 mg/kg, Dose(IV)*AUC(oral)/Dose(oral)*AUC(IV)) was found to be 0%. Moreover, the highest concentration (Cmax) in data set [1] (IV 1.7 mg/kg of prodrug, read-out: Prodrug Cmax (μM) IV) was found to be 23.2 µM. Also, the IC50 was more than 10 µM in the data set on HCT-116 colon carcinoma (Homo sapiens, HCT-116); more than 100 µM in the data set with A375 malignant melanoma (Homo sapiens, A-375); 0.27 µM against CDK2:Cyclin-E.

In turn, `Nc1nc(Nc2ccc(S(=O)(=O)NC(=O)CCC(=O)O)cc2)nn1C(=O)c1c(F)cccc1F` [Compound 1, 4-{4-[5-amino-1-(2,6-difluoro-benzoyl)-1H-[1,2,4]triazol-3-ylamino]-benzenesulfonylamino}-4-oxo-butyric acid] registered a bioavailability in data set [1] (setting [4]) of 1%. For the same compound, the values for the Cmax in data set [1] (setting [5]) and in data set [1] (setting [7]) were 47 µM and 0.36 µM, respectively. Moreover, the IC50 in the data set on HCT-116 colon carcinoma (Homo sapiens, HCT-116) was more than 100 µM; in the data set on A375 malignant melanoma (Homo sapiens, A-375), 20.3 µM; against CDK2:Cyclin-E it was 0.07 µM.

`NCC(=O)NS(=O)(=O)c1ccc(Nc2nc(N)n(C(=O)c3c(F)cccc3F)n2)cc1` [Compound 2, N-(2-amino-acetyl)-4-[5-amino-1-(2,6-difluoro-benzoyl)-1H-[1,2,4]triazol-3-ylamino]-benzenesulfonamide]: the bioavailability in data set [1] (rat, IV/PO 1.5/15 mg/kg, Dose(IV)*AUC(oral)/Dose(oral)*AUC(IV)) stood at 0%. Moreover, in data set [1] (IV 1.5 mg/kg of prodrug, read-out: Prodrug Cmax (μM) IV), the peak concentration (Cmax) came out at 11.8 µM. Also, the IC50 in the data set on HCT-116 colon carcinoma (Homo sapiens, HCT-116) was determined as 37 µM; with A375 malignant melanoma (Homo sapiens, A-375), 9.45 µM; against CDK2:Cyclin-E, 0.12 µM.

Turning to `COCCOCCOCC(=O)NS(=O)(=O)c1ccc(Nc2nc(N)n(C(=O)c3c(F)cccc3F)n2)cc1` [Compound 9, 4-[5-amino-1-(2,6-difluoro-benzoyl)-1H-[1,2,4]triazol-3-ylamino]-N-{2-[2-(2-methoxy-ethoxy)-ethoxy]-acetyl}-benzenesulfonamide], in data set [1] (setting [2]), the bioavailability turned out to be 0%. The IC50 in the data set on HCT-116 colon carcinoma (Homo sapiens, HCT-116) is more than 100 µM; with A375 malignant melanoma (Homo sapiens, A-375) it was more than 10 µM; against CDK2:Cyclin-E, 0.44 µM.

The compound `CCOC(=O)CCC(=O)NS(=O)(=O)c1ccc(Nc2nc(N)n(C(=O)c3c(F)cccc3F)n2)cc1` [Compound 8, 4-{4-[5-amino-1-(2,6-difluoro-benzoyl)-1H-[1,2,4]triazol-3-ylamino]-benzenesulfonylamino}-4-oxo-butyric acid ethyl ester] yielded a bioavailability in data set [1] (setting [4]) of 0.17%. The Cmax in data set [1] (setting [5]) was 72.2 µM; in data set [1] (setting [7]), 0.19 µM. Moreover, the IC50 with HCT-116 colon carcinoma (Homo sapiens, HCT-116) was 40.1 µM; in the data set with A375 malignant melanoma (Homo sapiens, A-375), more than 10 µM; at CDK2:Cyclin-E, 0.06 µM.

For the compound `Nc1nc(Nc2ccc(S(=O)(=O)NC(=O)CCN3CCOCC3)cc2)nn1C(=O)c1c(F)cccc1F` [Compound 7, 4-[5-amino-1-(2,6-difluoro-benzoyl)-1H-[1,2,4]triazol-3-ylamino]-N-(3-morpholin-4-yl-propionyl)-benzenesulfonamide], in data set [1] (setting [4]), the bioavailability stood at 0%. Further, the highest concentration (Cmax) in data set [1] (setting [5]) came to 20.5 µM. Also, the IC50 in the data set on HCT-116 colon carcinoma (Homo sapiens, HCT-116) is 50.8 µM; in the data set on A375 malignant melanoma (Homo sapiens, A-375) it was more than 100 µM; at CDK2:Cyclin-E, 0.12 µM.

`Nc1nc(Nc2ccc(S(=O)(=O)NC(=O)Cn3cnnn3)cc2)nn1C(=O)c1c(F)cccc1F` [Compound 4, 4-[5-amino-1-(2,6-difluoro-benzoyl)-1H-[1,2,4]triazol-3-ylamino]-N-(2-tetrazol-1-yl-acetyl)-benzenesulfonamide] gave a bioavailability in data set [1] (setting [4]) of 0%. In data set [1] (setting [5]), the Cmax came out at 23.5 µM. Moreover, the IC50 with HCT-116 colon carcinoma (Homo sapiens, HCT-116) was more than 100 µM; in the data set on A375 malignant melanoma (Homo sapiens, A-375), more than 100 µM; at CDK2:Cyclin-E, 0.43 µM.

The values are drawn from patent US7888380B2, “1,2,4-Triazolylaminoaryl (heteroaryl) sulfonamide derivatives” (Janssen Pharmaceutica, N.V., priority 2004, dated 2011).
